Experimental data: publication PMC9374744, “Structural basis for receptor selectivity and inverse agonism in S1P5 receptors” (Nature Communications, 2022)
“And” between values parts separate entries of the source, which are not always exact repeats. Identical values can stand only once.

How the values were obtained:
human S1P5 R111Q mutant = human S1P5 R111Q mutant (Homo sapiens, UniProt Q9H228, R111Q); assay: BRET-based cAMP Gi signaling assay, S1P5 R111Q; settings: inverse agonism
human S1P5 Y19A mutant = human S1P5 Y19A mutant (Homo sapiens, UniProt Q9H228, Y19A); assay: BRET-based cAMP Gi signaling assay, S1P5 Y19A; settings: inverse agonism
Chain of human S1P5 Y19A mutant (Q9H228 whole entry Y19A): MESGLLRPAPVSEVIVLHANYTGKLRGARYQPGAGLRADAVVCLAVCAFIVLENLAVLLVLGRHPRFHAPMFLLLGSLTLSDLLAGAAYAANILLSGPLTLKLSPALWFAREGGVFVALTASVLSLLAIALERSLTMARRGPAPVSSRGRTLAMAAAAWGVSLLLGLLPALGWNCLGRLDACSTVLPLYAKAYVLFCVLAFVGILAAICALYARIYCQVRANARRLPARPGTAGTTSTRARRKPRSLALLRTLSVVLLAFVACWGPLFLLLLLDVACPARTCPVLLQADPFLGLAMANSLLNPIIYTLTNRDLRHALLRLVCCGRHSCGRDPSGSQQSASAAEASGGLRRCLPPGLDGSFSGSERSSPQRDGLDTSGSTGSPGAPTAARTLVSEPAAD

human S1P5 V115A mutant = human S1P5 V115A mutant (Homo sapiens, UniProt Q9H228, V115A); assay: BRET-based cAMP Gi signaling assay, S1P5 V115A; settings: inverse agonism
Chain of human S1P5 V115A mutant (Q9H228 whole entry V115A): as the sequence (Q9H228 whole entry Y19A) above, with A19Y, V115A counted along it

human S1P5 R111A mutant = human S1P5 R111A mutant (Homo sapiens, UniProt Q9H228, R111A); assay: BRET-based cAMP Gi signaling assay, S1P5 R111A; settings: inverse agonism
Chain of human S1P5 R111A mutant (Q9H228 whole entry R111A): as the sequence (Q9H228 whole entry Y19A) above, with A19Y, R111A counted along it

human S1P5 Y19F mutant = human S1P5 Y19F mutant (Homo sapiens, UniProt Q9H228, Y19F); assay: BRET-based cAMP Gi signaling assay, S1P5 Y19F; settings: for BRET ratio, Supplementary Figure 6b: replicate values, listed as ONO
Chain of human S1P5 Y19F mutant (Q9H228 whole entry Y19F): as the sequence (Q9H228 whole entry Y19A) above, with A19F counted along it

human S1P5 V115L mutant = human S1P5 V115L mutant (Homo sapiens, UniProt Q9H228, V115L); assay: BRET-based cAMP Gi signaling assay, S1P5 V115L; settings: inverse agonism
Chain of human S1P5 V115L mutant (Q9H228 whole entry V115L): as the sequence (Q9H228 whole entry Y19A) above, with A19Y, V115L counted along it

[1] = Figure 2c source data, N/R = no response

Chain of human S1P5 R111Q mutant (Q9H228 whole entry R111Q): as the sequence (Q9H228 whole entry Y19A) above, with A19Y, R111Q counted along it

Compound: O=C(O)CCCN1CCc2cccc(OCCc3cccc4ccccc34)c2CC1 [ONO-5430608, 4-{6-[2-(1-naphthyl)ethoxy]-1,2,4,5-tetrahydro-3H-3-benzazepin-3-yl} butanoic acid]
- ONO-5430608 pEC50, single experiments #1-#3 (human S1P5 R111Q mutant; [1]): N/R
- ONO, pEC50, M (human S1P5 R111Q mutant; n=3, N/R = no response): N/R
- ONO-5430608 pEC50, single experiments #1-#3 (human S1P5 Y19A mutant; [1]): N/R
- ONO, pEC50, M (human S1P5 Y19A mutant; n=3, N/R = no response): N/R
- EC50 (human S1P5 V115A mutant; ONO, pEC50, M, V115A, mean ± SD, n=3): 29.5 nM
- EC50 (human S1P5 V115A mutant; ONO-5430608 pEC50, single experiments #1-#3, V115A, Figure 2c source data): 30.6 nM and 24.8 nM and 34.5 nM
- ONO-5430608 pEC50, single experiments #1-#3 (human S1P5 R111A mutant; [1]): N/R
- ONO, pEC50, M (human S1P5 R111A mutant; n=3, N/R = no response): N/R
- BRET ratio, Supplementary Figure 6b (human S1P5 Y19F mutant; [ONO] 0.169351 nM): 0.7728 and 0.7856 and 0.7903 and 0.7898 and 0.7857 and 0.7721 and 0.7815 and 0.7858 and 0.7955
- BRET ratio, Supplementary Figure 6b (human S1P5 Y19F mutant; [ONO] 0.508053 nM): 0.7709 and 0.7829 and 0.7789 and 0.7882 and 0.7908 and 0.7857 and 0.7787 and 0.7826 and 0.7773
- BRET ratio, Supplementary Figure 6b (human S1P5 Y19F mutant; [ONO] 1.52416 nM): 0.7699 and 0.7813 and 0.7753 and 0.786 and 0.7843 and 0.7814 and 0.7777 and 0.78 and 0.7821
- BRET ratio, Supplementary Figure 6b (human S1P5 Y19F mutant; [ONO] 4.57247 nM): 0.7759 and 0.7968 and 0.7779 and 0.7827 and 0.7847 (2×) and 0.7768 and 0.7813 and 0.7893
- BRET ratio, Supplementary Figure 6b (human S1P5 Y19F mutant; [ONO] 13.7174 nM): 0.7824 (2×) and 0.7736 and 0.7864 and 0.7844 and 0.776 and 0.7899 and 0.7904 and 0.7943
- ONO-5430608 pEC50, single experiments #1-#3 (human S1P5 Y19F mutant; inverse agonism, Figure 2c source data, N/R = no response): N/R
- ONO, pEC50, M (human S1P5 Y19F mutant; inverse agonism, n=3, N/R = no response): N/R
- EC50 (human S1P5 V115L mutant; ONO, pEC50, M, V115L, mean ± SD, n=3): 25.1 nM
- EC50 (human S1P5 V115L mutant; ONO-5430608 pEC50, single experiments #1-#3, V115L, Figure 2c source data): 20.7 nM and 25.9 nM and 22.9 nM
